Measured values from patent US11542481B2, “Morphinan N-demethylase isolated from the methylobacterium thebainfresser and methods of use thereof” (priority 2017, dated 2023).

Key:
[1] = Proteinase K treatment and cofactor addition, conversion of thebaine to northebaine; format: biochemical; conditions: 1500 pmol cofactor added to no enzyme and pET28a empty vector controls
Method: The first of two assays performed included adding 1500 pmol FAD to the 200 MND enzyme assay including 100 μl purified MND (˜36 μg) and 1500 pmol thebaine in 30 mM potassium phosphate buffer pH 7.0 with and without a prior 1 hour digest (of MND enzyme) with Proteinase K. Controls included a no enzyme control, FAD addition to a no enzyme control, a pET28a empty vector control, a pET28a empty vector control with FAD, and a pET28a empty vector control digested with Proteinase K followed by FAD addition. Assays were allowed to incubate for 20 minutes and then processed as in section 23.0. A second set of assays was performed, in duplicate, to validate the results found in the previous assay in addition to testing more cofactors. This assay included the following conditions; MND enzyme, MND enzyme pre-digested with Proteinase K for 1 hour, MND enzyme digested with Proteinase K in the presence of 1% SDS and 10 mM EDTA, MND enzyme with 1% SDS and 10 mM EDTA (no Proteinase K pre-digestion), pET28a empty vector, pET28a empty vector pre-digested with Proteinase K for 1 hour, pET28a empty vector digested with Proteinase K in the presence of 1% SDS and 10 mM EDTA, MND enzyme with the addition of 1500 pmol FMN, pET28a empty vector with the addition of 1500 pmol FMN, MND enzyme with the addition of 1500 pmol PLP and pET28a empty vector with the addition of 1500 pmol PLP. Assays were allowed to proceed for 20 minutes prior to processing and quantitation as described in section 23.0.

[2] = system: MND enzyme; test: Purified MND enzyme assay using thebaine as substrate; format: biochemical, Methylobacterium Thebainfresser
Method: […]. No enzyme, boiled enzyme, and purified empty vector controls were included. MND enzyme was heated for 10 min at 95° C. for the boiled enzyme control. Assays were extracted twice with 400 μl ethyl acetate and dried to completion with N2. Dried samples were resuspended in 150 μl of 50% MeOH, filtered (low protein binding 0.2 μm, 4 mm, PTFE; Millipore), and diluted 100 fold prior to LC-MS/MS analysis on the QTRAP 6500 using method 1 and a 5 μl injection volume.
Enzyme assays using the purified MND enzyme protein produced in PLUSE cells were done, in duplicate, as indicated above with the following exceptions: 10 μl of 100 μM codeine standard was added to each assay, prior to extraction, as an internal standard. Dried extracts were resuspended in 200 μl of 50% MeOH, filtered (0.2 μm, 4 mm, PTFE, Millipore). Samples were diluted 50 fold prior to a 5 μl injection onto the QTRAP 6500 using method 1.

[3] = system: MND enzyme; format: biochemical, Methylobacterium Thebainfresser; conditions: overnight enzyme assay at 30° C., 7.5 μM substrate, ~36 μg purified MND enzyme, pH 8.0; reduction of substrate vs empty vector control; percentages approximate
Method: Samples were injected by the UFLCXR (Shimadzu) autosampler/pump system using a 0.5 ml/min flow rate prior to separation using a Gemini C-18 column (150×2.00 mm, 5μ, 110 Å; Phenomenex) and introduction into the QTRAP 6500. The program consisted of a binary gradient with solvent A (5% acetonitrile/5% MeOH/10 mM ammonium acetate/15 mM NH4OH) and solvent B (90% acetonitrile/10 mM ammonium acetate/15 mM NH4OH) and the following gradient: 0-2.0 min 0% B, 2.0-9.0 min 0-44% B, 9.0-11.0 min 44-100% solvent B, 11-13 min 100% B and 100-0% solvent B from 13-14 min and held at 0% B for an additional 8 min. EPI scans for each substrate and predicted product mass were included for each enzyme assay and source parameters were identical to those used for the QTRAP 4000 above except CE and DP which were based upon the optimum for each individual compound. Masses used can be found in table 3. Data were analyzed using Analyst 1.6.2.
Substrates were prepared in a 1 mM stock concentration then diluted to 100 μM working concentration for use in enzyme assays with the MND enzyme. […] No more than 15% ethanol was added to the 1 mM concentrations. […] All enzyme assays contained 30 mM potassium phosphate buffer pH 8.0, 7.5 μM substrate and 100 μl of purified MND enzyme (˜36 μg) in a total volume of 200 μl. Duplicate assays of each substrate using purified pET28a empty vector were performed as negative control and an assay containing thebaine and MND enzyme was used as a positive control. Assays were incubated at 30° C. overnight prior to ethyl acetate extraction. All samples were diluted 10 fold with 50% MeOH and analyzed on the QTRAP 6500 using method 2 and a 20 μl injection volume. The percentage of substrate demethylation was calculated based upon reduction of substrate in the enzyme assay as compared to the negative control.
Purified MND enzyme from PLUSE cells was used to test various substrates containing a methylated nitrogen (FIG. 16) in overnight assays.

[4] = substrate: COC1=CC=C2[C@H]3Cc4ccc(OC)c5c4[C@@]2(CCN3C)[C@H]1O5; test: purified protein, by the assay type; conditions: pH 7.0; 30.0 °C

## Cc1cc2nc3c(=O)[nH]c(=O)nc-3n(C[C@H](O)[C@H](O)[C@H](O)COP(=O)(O)OP(=O)(O)OC[C@H]3O[C@@H](n4cnc5c(N)ncnc54)[C@H](O)[C@@H]3O)c2cc1C [FAD, flavin adenine dinucleotide]
[1]
  background demethylation of thebaine to northebaine on cofactor addition: slight increase

## Cc1cc2nc3c(=O)[nH]c(=O)nc-3n(C[C@H](O)[C@H](O)[C@H](O)COP(=O)(O)O)c2cc1C [FMN, flavin mononucleotide]
[1]
  background demethylation of thebaine to northebaine on cofactor addition: increase in background activity

## COC1=CC=C2[C@H]3Cc4ccc(OC)c5c4[C@@]2(CCN3C)[C@H]1O5 [Thebaine]
[2]; aqueous solution at 30° C.
  conversion to N-demethylthebaine (northebaine): 100%
[2]; overnight assay, purified MND enzyme, 1500 pmol thebaine, pH 8.0, 30° C.
  substrate depletion (in words): depleted completely
[3]
  Percent demethylated: 100%

## Cc1ncc(COP(=O)(O)O)c(C=O)c1O [PLP]
[1]
  background demethylation of thebaine to northebaine on cofactor addition: did not

B1: Methylobacterium Thebainfresser morphinan N-demethylase (MND), SEQ ID NO: 2, His-tag purified from E. coli PLUSE cells (Methylobacterium thebainfresser) (protein)
chain: MTEKTPKLGSEAANKLGLEADISRRDMVGGVLIGAGAALLASVAPGAINRALAEGPSRLPPVRGSGTGWRGIEIADDWQGPGGIGDYSKSNGNTGKVIRDAHAGIRNHEFEKRLATASDVNEKYDVIIVGAGISGLHSAYDLLRQRPNIKILMLDNHAIFGGEAKQNKMEVDGQALYGGQGPTLYSFVGDDLPSWKGNPALASIMELKTYPKEFGLPTETTWSDKKTDVKVPVDLWFSMASPSQTDIAYRWEGSGLVKNPLLNSFRDAPVSQKSKDAIALMLAVDNGAKRPVEPVGDVSTWVDNMTYAEFLKKVYGADDEAVQLVDQIDVVGTAGLGGDVFNASLAALGLNQYGGIELWNGGLQGLSLPTGNGGVGRSILRKFMPGAIKGGTSLTDTLFGDVNWDVLDHANNNVRIRLNSTVVGVQNNETPTGTKDATVFFLHDNRLYKAKGKAVIMGTPQQVNRNVCLNLPNHLSEAMGDFHHAPILVVNVALRNWKSMEKAGVSGLRWFGEYPGIGQIVRSMVIDGKEIMPCDPSKPAVMTFYIPMNQATRGMPRGEQAMTARHMLFNLTFADIELLIRDQLTRAFGSYGFDAKRDIAAIVANRWGHALVCAGPGFYTGLNGKPPVSKVITAGWDRVAFGHSDLSGRQAWTVAVNYARTAVANVFPKI
[4]
  Km: 0.97 µM
  Vmax: 0.32 pmol/s
  kcat: 0.00065 s⁻¹
